Experimental data from patent US6914045B2, “Glycopeptide antibiotics” (Wyeth Holdings Corporation, priority 2001, dated 2005).
Values after ≈ are worked out from the molar mass of the structure shown.

Legend:
Experiment in all cases: in vitro antibacterial evaluation, MIC by broth dilution
Format in all cases: cell-based
Enterococcus sp. = details: broth dilution, 18 hours at 35° C.
In short: (§1)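 Broth dilution per NCCLS standard M7-A2 in Muller-Hinton II […], with an inoculum of 5×10^5 CFU/mL and antibiotic spanning 64-0.06 μg/mL. The MIC is the lowest concentration that inhibits growth of the organism.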

Staphylococcus sp. = details: broth dilution, 18 hours at 35° C.; for MIC Staphylococcus aureus (ATCC 29213): strain ATCC 29213; for MIC Staphylococcus aureus (GC 1131): strain GC 1131; for MIC Staphylococcus aureus (GC 3051): strain GC 3051; for MIC Staphylococcus aureus (GC 3053): strain GC 3053; for MIC Staphylococcus aureus (GC 4541): strain GC 4541; for MIC Staphylococcus aureus (GC 4542): strain GC 4542; for MIC Staphylococcus aureus-SMITH (GC 4543): strain GC 4543; for MIC Staphylococcus aureus (GC 4544): strain GC 4544; for MIC Staphylococcus aureus (GC 4545): strain GC 4545; for MIC Staphylococcus haemolyticus (GC 4546): strain GC 4546; for MIC Coagulase Negative Staphylococcus (GC 4547): strain GC 4547; for MIC Coagulase Negative Staphylococcus (GC 4548): strain GC 4548; for MIC Coagulase Negative Staphylococcus (GC 4549): strain GC 4549; for MIC Coagulase Negative Staphylococcus (GC 4551): strain GC 4551; for MIC Coagulase Negative Staphylococcus (GC 6257): strain GC 6257
In short: as §1

Streptococcus sp. = details: broth dilution, 18 hours at 35° C.
In short: as §1

Escherichia coli = details: 18 hours at 35° C.

## CC(c1ccccc1)C1NC(=O)CNC(=O)C(CO)NC(=O)C(C(O)C2CNC(=N)N2C2OC(CO)C(O)C(O)C2O)NC(=O)C(C(O)C2CNC(=N)N2)NC(=O)C(Cc2ccc(OC3OC(CO)C(OC4OC5COC6(CCCCCCCCCCCC6)OC5C(O)C4O)C(O)C3O)cc2)NC1=O (stereo not drawn) [Example 210]
Enterococcus sp.
  MIC Enterococcus avium (GC 4558): 16 mg/L (≈ 10.9 µM)
  MIC Enterococcus faecalis (ATCC 29212): 32 mg/L (≈ 21.7 µM)
  MIC Enterococcus faecalis (GC 2242): 16 mg/L (≈ 10.9 µM)
  MIC Enterococcus faecalis (GC 2691): 8 mg/L (≈ 5.43 µM)
  MIC Enterococcus faecalis (GC 3059): 32 mg/L (≈ 21.7 µM)
  MIC Enterococcus faecalis (GC 4552): 32 mg/L (≈ 21.7 µM)
  MIC Enterococcus faecalis (GC 4553): 16 mg/L (≈ 10.9 µM)
  MIC Enterococcus faecalis (GC 4554): 32 mg/L (≈ 21.7 µM)
  MIC Enterococcus faecalis (GC 6189): 16 mg/L (≈ 10.9 µM)
  MIC Enterococcus faecium (GC 2243): 32 mg/L (≈ 21.7 µM)
  MIC Enterococcus faecium (GC 4556): 32 mg/L (≈ 21.7 µM)
  MIC Enterococcus faecium (GC 4557): 32 mg/L (≈ 21.7 µM)
Enterococcus sp.; inoculum 5×10^5 CFU/mL, strain ATCC 29212
  MIC Enterococcus faecalis (ATCC 29212): 32 mg/L (≈ 21.7 µM)
Enterococcus sp.; inoculum 5×10^5 CFU/mL, strain GC 2242
  MIC Enterococcus faecalis (GC 2242): 16 mg/L (≈ 10.9 µM)
Enterococcus sp.; inoculum 5×10^5 CFU/mL, strain GC 2243
  MIC Enterococcus faecium (GC 2243): 32 mg/L (≈ 21.7 µM)
Enterococcus sp.; inoculum 5×10^5 CFU/mL, strain GC 2691
  MIC Enterococcus faecalis (GC 2691): 8 mg/L (≈ 5.43 µM)
Enterococcus sp.; inoculum 5×10^5 CFU/mL, strain GC 3059
  MIC Enterococcus faecalis (GC 3059): 32 mg/L (≈ 21.7 µM)
Enterococcus sp.; inoculum 5×10^5 CFU/mL, strain GC 4552
  MIC Enterococcus faecalis (GC 4552): 32 mg/L (≈ 21.7 µM)
Enterococcus sp.; inoculum 5×10^5 CFU/mL, strain GC 4553
  MIC Enterococcus faecalis (GC 4553): 16 mg/L (≈ 10.9 µM)
Enterococcus sp.; inoculum 5×10^5 CFU/mL, strain GC 4554
  MIC Enterococcus faecalis (GC 4554): 32 mg/L (≈ 21.7 µM)
Enterococcus sp.; inoculum 5×10^5 CFU/mL, strain GC 4556
  MIC Enterococcus faecium (GC 4556): 32 mg/L (≈ 21.7 µM)
Enterococcus sp.; inoculum 5×10^5 CFU/mL, strain GC 4557
  MIC Enterococcus faecium (GC 4557): 32 mg/L (≈ 21.7 µM)
Enterococcus sp.; inoculum 5×10^5 CFU/mL, strain GC 4558
  MIC Enterococcus avium (GC 4558): 16 mg/L (≈ 10.9 µM)
Enterococcus sp.; inoculum 5×10^5 CFU/mL, strain GC 6189
  MIC Enterococcus faecalis (GC 6189): 16 mg/L (≈ 10.9 µM)
Staphylococcus sp.
  MIC Staphylococcus aureus (ATCC 29213): 32 mg/L (≈ 21.7 µM)
  MIC Staphylococcus aureus (GC 1131): 32 mg/L (≈ 21.7 µM)
  MIC Staphylococcus aureus (GC 3051): 32 mg/L (≈ 21.7 µM)
  MIC Staphylococcus aureus (GC 3053): 32 mg/L (≈ 21.7 µM)
  MIC Staphylococcus aureus (GC 4541): 32 mg/L (≈ 21.7 µM)
  MIC Staphylococcus aureus (GC 4542): 32 mg/L (≈ 21.7 µM)
  MIC Staphylococcus aureus-SMITH (GC 4543): 32 mg/L (≈ 21.7 µM)
  MIC Staphylococcus aureus (GC 4544): 32 mg/L (≈ 21.7 µM)
  MIC Staphylococcus aureus (GC 4545): 32 mg/L (≈ 21.7 µM)
  MIC Staphylococcus haemolyticus (GC 4546): 32 mg/L (≈ 21.7 µM)
  MIC Coagulase Negative Staphylococcus (GC 4547): 32 mg/L (≈ 21.7 µM)
  MIC Coagulase Negative Staphylococcus (GC 4548): 32 mg/L (≈ 21.7 µM)
  MIC Coagulase Negative Staphylococcus (GC 4549): 8 mg/L (≈ 5.43 µM)
  MIC Coagulase Negative Staphylococcus (GC 4551): 32 mg/L (≈ 21.7 µM)
  MIC Coagulase Negative Staphylococcus (GC 6257): 32 mg/L (≈ 21.7 µM)
Streptococcus sp.
  MIC Streptococcus agalactiae (GC 4564): 0.25 mg/L (≈ 0.17 µM)
  MIC Streptococcus pneumoniae (ATCC 6301): 0.25 mg/L (≈ 0.17 µM)
  MIC Streptococcus pneumoniae (GC 1894): <0.06 mg/L
  MIC Streptococcus pneumoniae (GC 4565): <0.06 mg/L
  MIC Streptococcus pyogenes (GC 4563): 2 mg/L (≈ 1.36 µM)
Streptococcus sp.; inoculum 5×10^5 CFU/mL, strain ATCC 6301
  MIC Streptococcus pneumoniae (ATCC 6301): 0.25 mg/L (≈ 0.17 µM)
Streptococcus sp.; inoculum 5×10^5 CFU/mL, strain GC 1894
  MIC Streptococcus pneumoniae (GC 1894): <0.06 mg/L
Streptococcus sp.; inoculum 5×10^5 CFU/mL, strain GC 4563
  MIC Streptococcus pyogenes (GC 4563): 2 mg/L (≈ 1.36 µM)
Streptococcus sp.; inoculum 5×10^5 CFU/mL, strain GC 4564
  MIC Streptococcus agalactiae (GC 4564): 0.25 mg/L (≈ 0.17 µM)
Streptococcus sp.; inoculum 5×10^5 CFU/mL, strain GC 4565
  MIC Streptococcus pneumoniae (GC 4565): <0.06 mg/L
Escherichia coli
  MIC Escherichia coli (ATCC 25922): >64 mg/L
  MIC Escherichia coli (GC 4559): >64 mg/L
  MIC Escherichia coli (GC 4560): 64 mg/L (≈ 43.4 µM)

## CC(c1ccccc1)C1NC(=O)CNC(=O)C(CO)NC(=O)C(CC2CNC(=N)N2C2OC(CO)C(O)C(O)C2O)NC(=O)C(CC2CNC(=N)N2)NC(=O)C(Cc2ccc3oc(-c4ccc5c(c4)Cc4ccccc4-5)nc3c2)NC1=O (stereo not drawn) [Example 42, Cyclo[3-[2-(9H-fluoren-2-yl)-1,3-benzoxazol-5-yl]alanyl-3-(2-iminoimidazolidin-4-yl)alanyl-3-(3-hexopyranosyl-2-iminoimidazolidin-4-yl)alanylserylglycyl-β-methylphenylalanyl]]
Enterococcus sp.; strain ATCC 29212
  MIC Enterococcus faecalis (ATCC 29212): 8 mg/L (≈ 7.09 µM)
Enterococcus sp.; strain GC 2242
  MIC Enterococcus faecalis (GC 2242): 8 mg/L (≈ 7.09 µM)
Enterococcus sp.; strain GC 2243
  MIC Enterococcus faecium (GC 2243): 4 mg/L (≈ 3.55 µM)
Enterococcus sp.; strain GC 2691
  MIC Enterococcus faecalis (GC 2691): 8 mg/L (≈ 7.09 µM)
Enterococcus sp.; strain GC 3059
  MIC Enterococcus faecalis (GC 3059): 16 mg/L (≈ 14.2 µM)
Enterococcus sp.; strain GC 4552
  MIC Enterococcus faecalis (GC 4552): 8 mg/L (≈ 7.09 µM)
Enterococcus sp.; strain GC 4553
  MIC Enterococcus faecalis (GC 4553): 8 mg/L (≈ 7.09 µM)
Enterococcus sp.; strain GC 4554
  MIC Enterococcus faecalis (GC 4554): 8 mg/L (≈ 7.09 µM)
Enterococcus sp.; strain GC 4556
  MIC Enterococcus faecium (GC 4556): 16 mg/L (≈ 14.2 µM)
Enterococcus sp.; strain GC 4557
  MIC Enterococcus faecium (GC 4557): 2 mg/L (≈ 1.77 µM)
Enterococcus sp.; strain GC 4558
  MIC Enterococcus avium (GC 4558): 4 mg/L (≈ 3.55 µM)
Enterococcus sp.; strain GC 6189
  MIC Enterococcus faecalis (GC 6189): 8 mg/L (≈ 7.09 µM)
Staphylococcus sp.
  MIC Staphylococcus aureus (ATCC 29213): 4 mg/L (≈ 3.55 µM)
  MIC Staphylococcus aureus (GC 1131): 2 mg/L (≈ 1.77 µM)
  MIC Staphylococcus aureus (GC 3051): 8 mg/L (≈ 7.09 µM)
  MIC Staphylococcus aureus (GC 3053): 4 mg/L (≈ 3.55 µM)
  MIC Staphylococcus aureus (GC 4541): 2 mg/L (≈ 1.77 µM)
  MIC Staphylococcus aureus (GC 4542): 2 mg/L (≈ 1.77 µM)
  MIC Staphylococcus aureus-SMITH (GC 4543): 2 mg/L (≈ 1.77 µM)
  MIC Staphylococcus aureus (GC 4544): 2 mg/L (≈ 1.77 µM)
  MIC Staphylococcus aureus (GC 4545): 2 mg/L (≈ 1.77 µM)
  MIC Staphylococcus haemolyticus (GC 4546): 2 mg/L (≈ 1.77 µM)
  MIC Coagulase Negative Staphylococcus (GC 4547): 2 mg/L (≈ 1.77 µM)
  MIC Coagulase Negative Staphylococcus (GC 4548): 1 mg/L (≈ 0.886 µM)
  MIC Coagulase Negative Staphylococcus (GC 4549): 1 mg/L (≈ 0.886 µM)
  MIC Coagulase Negative Staphylococcus (GC 4551): 4 mg/L (≈ 3.55 µM)
  MIC Coagulase Negative Staphylococcus (GC 6257): 1 mg/L (≈ 0.886 µM)
Streptococcus sp.; strain ATCC 6301
  MIC Streptococcus pneumoniae (ATCC 6301): 8 mg/L (≈ 7.09 µM)
Streptococcus sp.; strain GC 1894
  MIC Streptococcus pneumoniae (GC 1894): 16 mg/L (≈ 14.2 µM)
Streptococcus sp.; strain GC 4563
  MIC Streptococcus pyogenes (GC 4563): 4 mg/L (≈ 3.55 µM)
Streptococcus sp.; strain GC 4564
  MIC Streptococcus agalactiae (GC 4564): 8 mg/L (≈ 7.09 µM)
Streptococcus sp.; strain GC 4565
  MIC Streptococcus pneumoniae (GC 4565): 16 mg/L (≈ 14.2 µM)
Escherichia coli; strain ATCC 25922, broth dilution
  MIC Escherichia coli (ATCC 25922): 32 mg/L (≈ 28.4 µM)
Escherichia coli; strain GC 4559, broth dilution
  MIC Escherichia coli (GC 4559): 32 mg/L (≈ 28.4 µM)
Escherichia coli; strain GC 4560, broth dilution
  MIC Escherichia coli (GC 4560): 1 mg/L (≈ 0.886 µM)
